Like-named read-outs stand apart in the source and are kept apart here. Square brackets hold non-standard residues; d marks the D form. Ends that are not written are not given here. Met(O) = CS(=O)CC[C@H](N)C(=O)O
Key:
Assay type in all cases: cell-based
Escherichia coli [1] = settings: for Min. Inhibitory Concentration E. Coli: LB medium
Procedure: (§1) For the following Examples 3-9, antimicrobial assays were carried out in 96-well tissue culture plates. Each well was incubated with a given microorganism (Escherichia coli, Staphylococcus epidermidis, or Pseudomonas aeruginosa) suspended in LB medium. Upon the addition of the parent peptide having the structural formula hereinabove described, or its substitution analogues, or of Peptide I (dissolved in 1 X PBS, pH 7.0) each well contained a final cell density of 1.0×10^6 colony forming units (CFU)/ml. The final peptide concentrations ranged from 1.5 μg/ml to greater than 100 μg/ml.
(§2) Addition of peptides to the wells was defined as time zero. At twenty hours, the plates were placed in a Titertek Multiskan apparatus and the O.D.620 determined. The plates as well as the initial innoculum were incubated at 37° C.
(§3) Five wells per plate contained media alone, while five others contained medium plus cells. These controls were used to eliminate the possibility of media contamination while providing a measure of uninhibited growth of the microorganisms.
(§4) The degree of peptide activity was determined by comparing the substitution analogues with uninhibited growth of the control cells over a twenty-hour period.
(§5) as hereinabove described and analogues thereof wherein a methionine sulfoxide residue was substituted for various amino acid residues of the parent peptide were prepared as hereinabove described in Example 1 and tested for minimum inhibitory concentration with respect to E. coli, P. aeruginosa, and S. epidermidis at a concentration given in μg/ml, and for percent hemolysis of human red blood cells as hereinabove described in Example 2. The minimum inhibitory concentration and percent hemolysis (at a concentration of 100 μg/ml) are listed below in Table I. As used herein, the heading "Amino Acid Residue Substituted" refers to the number of the amino acid residue in the peptide which is substituted with a desired amino acid residue. All other residues remain the same as that of the normal peptide sequence. The term "Minimum Inhibitory Concentration" (MIC) as used herein indicates the minimum concentration of peptide in μg/ml needed to achieve 100 percent effective growth inhibition of the organism.

Pseudomonas aeruginosa [2] = settings: for Min. Inhibitory Concentration P. Aeruginosa: LB medium
Procedure: as §1, §2, §3, §4, §5

[3] = system: Staphylococcus epidermidis; assay: Antimicrobial assay in 96-well plates, LB medium (Example 2), MIC; settings: for Min. Inhibitory Concentration S. epidemidia: Table VI, methionine sulfoxide diastereomer fractions
Staphylococcus aureus = assay: Antimicrobial assay for deletion analogues (Example 10), MIC; settings: Table VII; 3.9×10^5 CFU/ml, 20 hours, LB medium
Procedure: (§6) For the deletion analogues of the parent peptide further described in Examples 11 and 12, antimicrobial assays were carried out in 96-well tissue culture plates. Each well was incubated with a given microorganism (Escherichia coli, Staphylococcus epidermidis, Pseudomonas aeruginosa, or Staphylococcus aureus) suspended in LB medium. Upon addition of the parent peptide or its deletion analogues (dissolved in 1×PBS<pH7.0), each well contained a final cell density of 1.3×10^5 colony forming units (CFU)/ml of E. coli, or 3.5×10^5 CFU/ml P.aeruginosa, or 3.9×10^5 CFU/ml S. Aureus or 3.0×10^5 CFU/ml S. epidermidis. The final peptide concentrations ranged from 1.5 μg/ml to greater than 100 μg/ml. Addition of peptide to the wells was defined as time zero. At twenty hours, the plates were placed in a Titertek Multiskan apparatus and the O.D. 620 determined. The plates as well as the initial innoculum were incubated at 37° C. Five wells per plate contained medium alone, whereas five others contained medium plus cells. These controls were used to eliminate the possibility of medium contamination, while providing a measure of uninhibited growth of the microorganisms. The degree of peptide activity was determined by comparing the deletion analogues with uninhibited growth of the control cells over a twenty-hour period. The effective growth inhibitation of the deletion analogues is listed in the examples and tables below.

[4] = system: Staphylococcus epidermidis; assay: as above; settings: Table VII; 3.0×10^5 CFU/ml, 20 hours, LB medium
Procedure: as §6

Escherichia coli [5] = assay: as above; settings: Table VII; 1.3×10^5 CFU/ml, 20 hours, LB medium
Procedure: as §6

Pseudomonas aeruginosa [6] = assay: as above; settings: Table VII; 3.5×10^5 CFU/ml, 20 hours, LB medium
Procedure: as §6

[7] = Table VI, methionine sulfoxide diastereomer fractions, 20 hours
[8] = Table II, lysine substitutions, 20 hours
[9] = Table IV, analogues substituted at residues 4 and 11, 20 hours

| Substance | Minimum Inhibitory Concentration S. aureus (Staphylococcus aureus) [µg/mL] | Minimum Inhibitory Concentration S. epidermidis [4] [µg/mL] | Minimum Inhibitory Concentration E. coli (Escherichia coli [5]) [µg/mL] | Minimum Inhibitory Concentration P. Aeruginosa (Pseudomonas aeruginosa [6]) [µg/mL] | also measured |
| --- | --- | --- | --- | --- | --- |
| 7 (SEQ ID NO: 11) 20/80: residue 7 methionine sulfoxide analogue, fraction by proportion of L-methionine-L-/D-sulfoxide (assignment undetermined) (LKLLKK[Met(O)]LKKLKKLLKKL; also: sulfoxide L-/D- 20/80 mixture, assignment undetermined) |  |  |  |  | Min. Inhibitory Concentration E. Coli (Escherichia coli [1]; [7]): 5 µg/mL; Min. Inhibitory Concentration P. Aeruginosa (Pseudomonas aeruginosa [2]; [7]): > 5 µg/mL; Min. Inhibitory Concentration S. epidemidia ([3]; 20 hours): > 10 µg/mL |
| 4 (SEQ ID NO: 8) 50/50: residue 4 methionine sulfoxide analogue, fraction by proportion of L-methionine-L-/D-sulfoxide (assignment undetermined) (LKL[Met(O)]KKLLKKLKKLLKKL; also: sulfoxide L-/D- 50/50 mixture, assignment undetermined) |  |  |  |  | Min. Inhibitory Concentration E. Coli (Escherichia coli [1]; [7]): 10 µg/mL; Min. Inhibitory Concentration P. Aeruginosa (Pseudomonas aeruginosa [2]; [7]): 5 µg/mL; Min. Inhibitory Concentration S. epidemidia ([3]; 20 hours): 5 µg/mL |
| Ac-LKLKKLLKKLKKLLKKL-NH2 [3 (X(SEQ ID NO: 48) --NH2)] | 32 to 64 | 4 | 4 | 8 |  |
| Ac-LKKLKKLLKKLKKLLKKL-NH2 [3 (SEQ ID NO: 24)] |  |  |  |  | Min. Inhibitory Concentration E. Coli (Escherichia coli [1]; [8]): 5 µg/mL; Min. Inhibitory Concentration P. Aeruginosa (Pseudomonas aeruginosa [2]; [8]): 30 µg/mL; Min. Inhibitory Concentration S. epidermidis [3, 8]: 10 µg/mL |
| 11 (SEQ ID NO: 15) 70/30: residue 11 methionine sulfoxide analogue, fraction by proportion of L-methionine-L-/D-sulfoxide (assignment undetermined) (LKLLKKLLKK[Met(O)]KKLLKKL; also: sulfoxide L-/D- 70/30 mixture, assignment undetermined) |  |  |  |  | Min. Inhibitory Concentration E. Coli (Escherichia coli [1]; [7]): 10 µg/mL; Min. Inhibitory Concentration P. Aeruginosa (Pseudomonas aeruginosa [2]; [7]): 2.5 µg/mL; Min. Inhibitory Concentration S. epidemidia ([3]; 20 hours): 2 µg/mL |
| Ac-LKLLKLLKKLKKLLKKL-NH2 [5 (X(SEQ ID NO: 49) --NH2)] | 64 to 128 | 2 | 8 | 32 |  |
| Ac-LLLKKLLKKLKKLLKKL-NH2 [2 (X(SEQ ID NO: 47) --NH2)] | 32 to 64 | 4 | 8 to 16 | 16 to 32 |  |
| Ac-LKLKKKLLKKLKKLLKKL-NH2 [4 (SEQ ID NO: 25)] |  |  |  |  | Min. Inhibitory Concentration E. Coli (Escherichia coli [1]; [8]): 2.5 µg/mL; Min. Inhibitory Concentration P. Aeruginosa (Pseudomonas aeruginosa [2]; [8]): 30 µg/mL; Min. Inhibitory Concentration S. epidermidis [3, 8]: 5 µg/mL |
| Ac-LKLLKKLLKKLKKLLKK-NH2 [18 (X(SEQ ID NO: 56) --NH2)] | 32 | 2 | 16 | 8 |  |
| Ac-KKLLKKLLKKLKKLLKKL-NH2 [1 (SEQ ID NO: 23)] |  |  |  |  | Min. Inhibitory Concentration E. Coli (Escherichia coli [1]; [8]): 5 µg/mL; Min. Inhibitory Concentration P. Aeruginosa (Pseudomonas aeruginosa [2]; [8]): 30 µg/mL; Min. Inhibitory Concentration S. epidermidis [3, 8]: 25 µg/mL |
| Ac-LKLLKKLLKLKKLLKKL-NH2 [9 (X(SEQ ID NO: 51) --NH2)] | 64 | 4 | 8 | 16 |  |
| Ac-LKLLKKLLKKLKKLLKL-NH2 [16 (X(SEQ ID NO: 55) --NH2)] | 32 | 4 | 8 | 16 |  |
| Ac-LLKLLKKLLKKLKK [Peptide I] |  |  |  |  | Minimum Inhibitory Concentration against E.coli (Escherichia coli [1]; 20 h): 10 µg/mL; Minimum Inhibitory Concentration against P.aeruginosa (Pseudomonas aeruginosa [2]; 20 h): 5 µg/mL |
| Ac-LKLLKKLLKKLKLLKKL-NH2 [12 (X(SEQ ID NO: 53) --NH2)] | 32 | 4 | 8 | 8 |  |
| 4 (SEQ ID NO: 8) 60/40: residue 4 methionine sulfoxide analogue, fraction by proportion of L-methionine-L-/D-sulfoxide (assignment undetermined) (LKL[Met(O)]KKLLKKLKKLLKKL; also: sulfoxide L-/D- 60/40 mixture, assignment undetermined) |  |  |  |  | Min. Inhibitory Concentration E. Coli (Escherichia coli [1]; [7]): > 10 µg/mL; Min. Inhibitory Concentration P. Aeruginosa (Pseudomonas aeruginosa [2]; [7]): 5 µg/mL; Min. Inhibitory Concentration S. epidemidia ([3]; 20 hours): 5 µg/mL |
| Ac-LKLLKKLKKLKKLLKKL-NH2 [7 (X(SEQ ID NO: 50) --NH2)] | 64 | 2 | 4 | 4 to 8 |  |
| Ac-LKLLKKLLKKKKLLKKL-NH2 [11 (X(SEQ ID NO: 52) --NH2)] | 256 | 2 | 64 | 8 |  |
| Ac-LKLKKKLLKKMKKLLKKL-NH2 [Analogue 8] |  |  |  |  | Min. Inhibitory Concentration E. Coli (Escherichia coli [1]; [9]): 5 µg/mL; Min. Inhibitory Concentration P. Aeruginosa (Pseudomonas aeruginosa [2]; [9]): 5 µg/mL; Min. Inhibitory Concentration S. epidermidis [3, 9]: 5 µg/mL |
| Ac-LKLLKKLLKKLKKLKKL-NH2 [14 (X(SEQ ID NO: 54) --NH2)] | 32 | 2 | 8 | 8 |  |
| Ac-KLLKKLLKKLKKLLKKL-NH2 [1 (X(SEQ ID NO: 46) --NH2)] | 32 | 4 | 16 | 16 to 32 |  |
| 7 (SEQ ID NO: 11) 70/30: residue 7 methionine sulfoxide analogue, fraction by proportion of L-methionine-L-/D-sulfoxide (assignment undetermined) (LKLLKK[Met(O)]LKKLKKLLKKL; also: sulfoxide L-/D- 70/30 mixture, assignment undetermined) |  |  |  |  | Min. Inhibitory Concentration E. Coli (Escherichia coli [1]; [7]): 10 µg/mL; Min. Inhibitory Concentration P. Aeruginosa (Pseudomonas aeruginosa [2]; [7]): > 5 µg/mL; Min. Inhibitory Concentration S. epidemidia ([3]; 20 hours): > 10 µg/mL |
| 11 (SEQ ID NO: 15) 20/80: residue 11 methionine sulfoxide analogue, fraction by proportion of L-methionine-L-/D-sulfoxide (assignment undetermined) (LKLLKKLLKK[Met(O)]KKLLKKL; also: sulfoxide L-/D- 20/80 mixture, assignment undetermined) |  |  |  |  | Min. Inhibitory Concentration E. Coli (Escherichia coli [1]; [7]): 10 µg/mL; Min. Inhibitory Concentration P. Aeruginosa (Pseudomonas aeruginosa [2]; [7]): 5 µg/mL; Min. Inhibitory Concentration S. epidemidia ([3]; 20 hours): 2.5 µg/mL |

Source: patent US5294605A, “Amphiphilic peptide compositions and analogues thereof” (The Scripps Research Institute, priority 1991, dated 1994)
